Results from US20090214670A1, “Rhcc peptide and uses thereof” (Optovent AB, priority 2005, published 2009).

Experiments:
RHCC [1] = assay: filtering experiment: excess metal complex removed via size exclusion filters, absorption spectra; type: binding, Staphylothermus marinus; conditions: mixed with excess metal complex, stirred at least 1 hour, solvent replaced via size exclusion filters; FIG. 2 and 3
Procedure: After leaving the mixed solution stirred for at least 1 hour, the solvent containing RHCC, the metal complex and the buffer or any other supporting salt, the solvent together with any excess metal complex and salt is replaced via size exclusion filters by a solvent NOT containing any metal complex. The result of such an experiment is plotted in FIG. 2. […] In combination with the x-ray structures a location of HgI4^2− inside the cavities in solution can be concluded. […] According to the crystal structure, incorporation into the cavities of RHCC can be concluded for cisplatin.

RHCC peptide = assay: NMR and UV-Vis absorption experiments on incorporation of metal ions in solution; type: binding, Staphylothermus marinus
Text: For the addition of electrons according to reaction (4), electrochemical or photoelectrochemical reduction (with e.g. [Ru(bpy)3]^2+) may be used, although the simple addition of a chemical reducing agent (e.g. NaBH4) is also possible.

RHCC [2] = assay: localisation by UV-Vis spectroscopy (solvatochromic effect); type: binding, Staphylothermus marinus; conditions: tris-buffer solution with RHCC compared with water, methanol, water/methanol 50/50; FIG. 1
Procedure: The location of a drug inside the cavities can be detected by techniques sensitive to the local microscopic environment of the molecule, e.g. the drug. For example the absorption of visible light (UV-Vis spectroscopy—solvatochromic effect) can be used to probe the local environment of e.g. […] (FIG. 1). The position of the absorption peak of […] is measured in water (FIG. 1—Plot A), in methanol (FIG. 1, Plot C), water/methanol (50/50) (FIG. 1—Plot B) and in a mixture with the peptide (FIG. 1—Plot E).

[3] = test system: IL-6-dependent BAF/3 cell line; assay: biological activity on the IL-6-dependent BAF/3 cell line; type: cell-based
Text: The calculated molecular mass of RHCC-IL-6 monomer is 28.3 kDa. […] The corresponding value for the tetramer is […].

Row | Molecule | interaction of metal complex with RHCC after filtering off excess complex (RHCC [1]) | incorporation of the metal ion into RHCC peptide in solution (RHCC peptide) | local environment of the complex when mixed with the peptide (absorption peak position) (RHCC [2]) | biological activity on IL-6-dependent BAF/3 cell line [3]
1 | [I][Hg-2]([I])([I])[I] [HgI4^2−] | strong enough to prevent HgI4^2− from being filtered from the solution | incorporates the metal ion in solution | resides in a hydrophobic environment | –
2 | [Cl][Pt-2]([Cl])([Cl])[Cl] [[PtCl4]^−] | – | incorporates the metal ion in solution | – | –
3 | N.N.[Cl][Pt][Cl] [cisplatin] | strong interaction | – | – | –
4 | RHCC-IL-6 fusion molecule: fusion protein: histidine tag, human interleukin-6 sequence, GS linker, RHCC sequence; forms a tetramer | – | – | – | full biological activity
